Target: T1, acetylcholinesterase from Electrophorus electricus (electric eel) (Electrophorus electricus, UniProt O42275)
T1 construct: purchased Sigma-Aldrich C2888
Test: biochemical
Settings: AChA, IC50 (anti-acetylcholinesterase activity), total extracts of C. officinalis flowers; mean ± SD of five experiments
Description: For the further detailed studies, samples of the individual flavonoids previously isolated from C. officinalis flowers were used. The acetylcholinesterase inhibition assay was performed using a spectrophotometric method. […] Additionally minor flavonoids of C. officinalis flowers were included for analysis such as 3-O-(2′′-acetyl)-glucosides, 3-O-(2′′,6′′-di-acetyl)-glucosides, 3-O-(3′′-rhamnosyl)-glucosides, 3-O-(4′′-rhamnosyl)-glucosides and 3-O-rhamnosides (Figure 3).
The acetylcholinesterase inhibition assay was performed using a spectrophotometric microplate assay. The reaction mixture consisted of 235.7 µL of 0.1 M phosphate buffer pH 7.4, 20 µL of a solution of acetylcholinesterase (final concentration 0.1 U/mL in 0.1 M phosphate buffer pH 7.4), 2.7 µL of test compound or plant extract solutions in dimethyl sulfoxide (DMSO). The controls contained the corresponding volume of DMSO of test compound solutions. The enzymatic reaction was initiated by the addition of 1.6 µL of α-naphthyl acetate solution in DMSO. After mixing for 90 s and incubation at 25 °C for 90 s, the reaction was stopped with 20 µL of a 5% solution of sodium dodecyl sulfate (SDS) in water. The color was developed with 20 µL of Fast Blue B salt solution (final concentration 0.17 mM in water). The method was realized in 96-well plates. The microplate was read by a Bio-Rad microplate reader Model 3550 UV. Enzyme activity and inhibition were quantified by determination of the absorbance at 600 nm after the formation of the purple-colored diazonium dye as a percentage. […] The percentage of inhibition was calculated relative to a control sample, for which the anti-acetylcholinesterase activity was assessed under identical conditions, but in the absence of the test compound, using the expression:% Inhibition = {[(ACE − AC) − (ATE − AT)]/(ACE − AC)} × 100% where ACE is the absorbance at 600 nm of the control sample with enzyme; AC is the absorbance at 600 nm of the control sample without enzyme; ATE is the absorbance at 600 nm of the test compound (or plant extract) with enzyme; AT is the absorbance at 600 nm of the test compound (or plant extract) without enzyme.

T1 sequence (O42275 24-633): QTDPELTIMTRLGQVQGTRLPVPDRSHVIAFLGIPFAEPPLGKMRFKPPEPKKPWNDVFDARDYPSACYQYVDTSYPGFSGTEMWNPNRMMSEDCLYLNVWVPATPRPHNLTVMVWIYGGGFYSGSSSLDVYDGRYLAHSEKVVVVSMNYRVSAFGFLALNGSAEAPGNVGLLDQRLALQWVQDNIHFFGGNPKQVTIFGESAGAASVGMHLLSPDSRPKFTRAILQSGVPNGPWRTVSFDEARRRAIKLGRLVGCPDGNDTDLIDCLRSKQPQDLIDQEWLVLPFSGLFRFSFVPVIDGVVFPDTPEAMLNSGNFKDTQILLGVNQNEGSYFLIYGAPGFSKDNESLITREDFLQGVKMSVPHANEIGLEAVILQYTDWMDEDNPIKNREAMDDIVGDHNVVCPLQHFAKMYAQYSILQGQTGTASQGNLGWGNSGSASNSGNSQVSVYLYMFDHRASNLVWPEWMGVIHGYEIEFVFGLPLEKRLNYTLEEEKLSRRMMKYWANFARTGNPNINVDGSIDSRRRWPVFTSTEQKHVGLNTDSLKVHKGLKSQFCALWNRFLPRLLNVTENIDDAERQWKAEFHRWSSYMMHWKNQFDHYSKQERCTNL

`CN(C)C(=O)Oc1cccc([N+](C)(C)C)c1` [neostigmine, neostigmine bromide, reference compound] was tested, and the IC50 was 3.36 µM.

Same assay, conditions: Anti-acetylcholinesterase activity, IC50, individual flavonoids; mean ± SD of three experiments

`O=c1c(O[C@@H]2O[C@H](CO)[C@@H](O)[C@H](O)[C@H]2O)c(-c2ccc(O)c(O)c2)oc2cc(O)cc(O)c12` [Quercetin 3-O-Glcp, quercetin-3-O-glucoside] and `CC1OC(Oc2c(-c3ccc(O)c(O)c3)oc3cc(O)cc(O)c3c2=O)C(O)C(O)C1O` (stereo not shown) [Quercetin 3-O-Rhap, quercetin-3-O-rhamnoside] are within 1.5-fold of each other in IC50: 70.1 ± 1.82 µM for the first, 48.8 ± 1.26 µM for the second.

Compared with `C[C@@H]1O[C@@H](OC[C@H]2O[C@@H](Oc3c(-c4ccc(O)c(O)c4)oc4cc(O)cc(O)c4c3=O)[C@H](O)[C@@H](O)[C@@H]2O)[C@H](O)[C@H](O)[C@H]1O` [Quercetin 3-O-(6″-Rhap)-Glcp, quercetin-3-O-rutinoside], `COc1cc(-c2oc3cc(O)cc(O)c3c(=O)c2O)ccc1O` [Isorhamnetin, 3,5,7,4′-tetrahydroxy-3′-methoxyflavone] is 3-fold lower in IC50: 72.1 ± 2.04 µM for the first, 24.2 ± 0.74 µM for the second.

Work on `CN(C)C(=O)Oc1cccc([N+](C)(C)C)c1` [neostigmine, neostigmine bromide, reference compound] yielded an IC50 of 3.37 µM.

Same assay, conditions: individual flavonoids; mean ± SD of three experiments; read-out: Anti-acetylcholinesterase activity, IC50

`CC1OC(OC2C(Oc3c(-c4ccc(O)c(O)c4)oc4cc(O)cc(O)c4c3=O)OC(C)C(O)C(O)C2O)C(O)C(O)C1O` (stereo not shown) [Quercetin 3-O-(2″-Rhap)-Rhap, quercetin-3-O-(2′′-rhamnosyl)-rhamnoside] and `CC1OC(OC2C(Oc3c(-c4ccc(O)c(O)c4)oc4cc(O)cc(O)c4c3=O)OC(CO)C(O)C2O)C(O)C(O)C1O` (stereo not shown) [Quercetin 3-O-(2″-Rhap)-Glcp, quercetin-3-O-(2′′-rhamnosyl)-glucoside] are within 1.5-fold of each other in IC50: 67.9 ± 1.76 µM for the first, 71.9 ± 1.94 µM for the second.

`COc1cc(-c2oc3cc(O)cc(O)c3c(=O)c2OC2OC(CO)C(O)C(O)C2OC(C)=O)ccc1O` (stereo not shown) [Isorhamnetin 3-O-(2″-Ac)-Glcp, isorhamnetin-3-O-(2′′-acetyl)-glucoside] and `CC(=O)OC1C(Oc2c(-c3ccc(O)c(O)c3)oc3cc(O)cc(O)c3c2=O)OC(CO)C(O)C1O` (stereo not shown) [Quercetin 3-O-(2″-Ac)-Glcp, quercetin-3-O-(2′′-acetyl)-glucoside] are within 1.5-fold of each other in IC50: 70.9 ± 1.84 µM for the first, 48 ± 1.2 µM for the second.

`COc1cc(-c2oc3cc(O)cc(O)c3c(=O)c2OC2OC(CO)C(OC3OC(C)C(O)C(O)C3O)C(O)C2O)ccc1O` (stereo not shown) [Isorhamnetin 3-O-(4″-Rhap)-Glcp, isorhamnetin-3-O-(4′′-rhamnosyl)-glucoside] and `COc1cc(-c2oc3cc(O)cc(O)c3c(=O)c2OC2OC(CO)C(O)C(OC3OC(C)C(O)C(O)C3O)C2O)ccc1O` (stereo not shown) [Isorhamnetin 3-O-(3″-Rhap)-Glcp, isorhamnetin-3-O-(3′′-rhamnosyl)-glucoside] are within error of each other in IC50: 92.1 ± 2.85 µM for the first, 91.2 ± 2.73 µM for the second.

First: CC(=O)OCC1OC(Oc2c(-c3ccc(O)c(O)c3)oc3cc(O)cc(O)c3c2=O)C(O)C(O)C1O (stereo not shown) [Quercetin 3-O-(6″-Ac)-Glcp, quercetin-3-O-(6′′-acetyl)-glucoside]
Second: COc1cc(-c2oc3cc(O)cc(O)c3c(=O)c2OC2OC(COC(C)=O)C(O)C(O)C2O)ccc1O (stereo not shown) [Isorhamnetin 3-O-(6″-Ac)-Glcp, isorhamnetin-3-O-(6′′-acetyl)-glucoside]
The IC50 of the first is 1.5-fold lower: 45.2 ± 1.12 µM for the first, 68.2 ± 1.71 µM for the second. The first is the more potent here.

`COc1cc(-c2oc3cc(O)cc(O)c3c(=O)c2OC2OC(CO)C(O)C(O)C2OC2OC(C)C(O)C(O)C2O)ccc1O` (stereo not shown) [Isorhamnetin 3-O-(2″-Rhap)-Glcp, isorhamnetin-3-O-(2′′-rhamnosyl)-glucoside] and `COc1cc(-c2oc3cc(O)cc(O)c3c(=O)c2O[C@@H]2O[C@H](CO[C@@H]3O[C@@H](C)[C@H](O)[C@@H](O)[C@H]3O)[C@@H](O)[C@H](O)[C@H]2O)ccc1O` [Isorhamnetin 3-O-(6″-Rhap)-Glcp, isorhamnetin-3-O-rutinoside] are within error of each other in IC50: 94.3 ± 2.82 µM for the first, 97.3 ± 2.91 µM for the second.

`COc1cc(-c2oc3cc(O)cc(O)c3c(=O)c2OC2OC(CO)C(O)C(O)C2O)ccc1O` (stereo not shown) [Isorhamnetin 3-O-Glcp, isorhamnetin-3-O-glucoside] and `COc1cc(-c2oc3cc(O)cc(O)c3c(=O)c2OC2OC(C)C(O)C(O)C2O)ccc1O` (stereo not shown) [Isorhamnetin 3-O-Rhap, isorhamnetin-3-O-rhamnoside] are within 1.5-fold of each other in IC50: 89 ± 2.49 µM for the first, 74 ± 2.14 µM for the second.

`CC1OC(OCC2OC(Oc3c(-c4ccc(O)c(O)c4)oc4cc(O)cc(O)c4c3=O)C(OC3OC(C)C(O)C(O)C3O)C(O)C2O)C(O)C(O)C1O` (stereo not shown) [Quercetin 3-O-(2″,6″-di-Rhap)-Glcp, quercetin-3-O-(2′′,6′′-di-rhamnosyl)-glucoside] and `COc1cc(-c2oc3cc(O)cc(O)c3c(=O)c2OC2OC(COC3OC(C)C(O)C(O)C3O)C(O)C(O)C2OC2OC(C)C(O)C(O)C2O)ccc1O` (stereo not shown) [Isorhamnetin 3-O-(2″,6″-di-Rhap)-Glcp, isorhamnetin-3-O-(2′′,6′′-di-rhamnosyl)-glucoside] are within error of each other in IC50: 94.9 ± 2.65 µM for the first, 98.5 ± 3.04 µM for the second.

`CC1OC(OC2C(CO)OC(Oc3c(-c4ccc(O)c(O)c4)oc4cc(O)cc(O)c4c3=O)C(O)C2O)C(O)C(O)C1O` (stereo not shown) [Quercetin 3-O-(4″-Rhap)-Glcp, quercetin-3-O-(4′′-rhamnosyl)-glucoside] and `CC1OC(OC2C(O)C(CO)OC(Oc3c(-c4ccc(O)c(O)c4)oc4cc(O)cc(O)c4c3=O)C2O)C(O)C(O)C1O` (stereo not shown) [Quercetin 3-O-(3″-Rhap)-Glcp, quercetin-3-O-(3′′-rhamnosyl)-glucoside] are within error of each other in IC50: 70.3 ± 1.9 µM for the first, 69.1 ± 1.84 µM for the second.

`CC(=O)OCC1OC(Oc2c(-c3ccc(O)c(O)c3)oc3cc(O)cc(O)c3c2=O)C(OC(C)=O)C(O)C1O` (stereo not shown) [Quercetin 3-O-(2″,6″-di-Ac)-Glcp, quercetin-3-O-(2′′,6′′-di-acetyl)-glucoside] and `COc1cc(-c2oc3cc(O)cc(O)c3c(=O)c2OC2OC(COC(C)=O)C(O)C(O)C2OC(C)=O)ccc1O` (stereo not shown) [Isorhamnetin 3-O-(2″,6″-di-Ac)-Glcp, isorhamnetin-3-O-(2′′,6′′-di-acetyl)-glucoside] are within 1.5-fold of each other in IC50: 36.5 ± 1.02 µM for the first, 51.3 ± 1.53 µM for the second.

Same assay, conditions: negative control

For `[Cl-].[Na+]` [NaCl, reference compound], the “Anti-acetylcholinesterase activity of the negative control, in words” value was “inactive”.

From paper PMC5578075 (International Journal of Molecular Sciences, 2017)
